By pIC50 is commonly meant −log10 of the IC50, conventionally taken in molar units. Higher therefore signals a small IC50.

Consider two molecules from patent publication US9221756B2, “Pyrrole derivatives” (priority 2011, dated 2015).

In data set [1] the target is T1, pneumolysin (Streptococcus pneumoniae serotype 2, UniProt Q04IN8). Description: Inhibition of the haemolytic activity of pneumolysin (sheep erythrocytes). The settings on record: IC50, inhibition of pneumolysin-induced haemolysis of sheep erythrocytes. The format is cell-based.
The next data set has as its target T2, Streptolysin O (SLO) (Streptococcus pyogenes serotype M3, UniProt P0DF97).
T2 sequence (P0DF97 34-571): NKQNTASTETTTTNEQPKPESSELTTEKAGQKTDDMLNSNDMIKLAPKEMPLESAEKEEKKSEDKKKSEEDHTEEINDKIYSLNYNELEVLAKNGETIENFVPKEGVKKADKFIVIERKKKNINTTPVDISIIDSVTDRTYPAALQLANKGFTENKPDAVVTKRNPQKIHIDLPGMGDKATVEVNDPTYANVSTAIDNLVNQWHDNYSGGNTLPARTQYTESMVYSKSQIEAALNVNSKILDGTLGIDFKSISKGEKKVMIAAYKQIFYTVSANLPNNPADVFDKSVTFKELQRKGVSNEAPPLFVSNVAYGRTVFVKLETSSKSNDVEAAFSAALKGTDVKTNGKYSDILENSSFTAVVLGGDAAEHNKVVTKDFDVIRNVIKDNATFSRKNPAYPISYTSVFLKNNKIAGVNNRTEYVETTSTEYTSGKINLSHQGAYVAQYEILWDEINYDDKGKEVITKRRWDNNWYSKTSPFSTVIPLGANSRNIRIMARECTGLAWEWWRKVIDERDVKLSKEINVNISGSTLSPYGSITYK
Description: Inhibition of the haemolytic activity of Streptolysin O. The format is cell-based, Group A Streptococci. The settings on record: toxin SLO; haemolysis assay protocol of Section A.

In the next data set the target is Perfringolysin O (PFO) (Clostridium perfringens, UniProt P0C2E9). Description: cell-based.
In another data set the target is Listeriolysin O (LLO) (Listeria monocytogenes serovar 1/2a, UniProt P13128). Description: Inhibition of the haemolytic activity of Listeriolysin O. Type of data set: cell-based. The settings on record: toxin LLO; haemolysis assay protocol of Section A.
The target in a further data set is Anthrolysin O (ALO) (Bacillus anthracis, UniProt A0A6L7HHW7). Description: cell-based.
The next data set concerns the target Suilysin (SLY) (Streptococcus suis, UniProt Q55996). Description: Inhibition of the haemolytic activity of Suilysin. Type of data set: cell-based. To be noted: toxin SLY; haemolysis assay protocol of Section A.
Data set [2] deals with T1, pneumolysin. Description: Inhibition of pneumolysin-induced lactate dehydrogenase release from A549 cells. The format is cell-based.
The target in data set [3] is T1, pneumolysin. Description: Ex vivo meningitis assay: effect of pneumolysin on ciliary function of cultured ependymal cells. Type of data set: cell-based. To be noted: rat ependymal cells. From the text:
(§1) The ependymal ciliated cells line the cerebral ventricles of the brain and the central canal of the spinal cord and are covered with cilia responsible for the circulation of the cerebrospinal fluid (CSF) around the central nervous system. This layer acts as a selective brain barrier to and from the cerebrospinal fluid and plays a role in controlling the CSF volume. […] This model is based on culturing and differentiating ciliated ependymal cells from neonate rat brains, which recreate the in vivo situation, where cells lining the brain ventricles, are exposed to S. pneumoniae and its toxic products.
(§2) Ependymal cell cultures were prepared by the method previously described [Microb. Pathog. (1999) 27 303-309]. Tissue culture trays were coated with bovine fibronectin and incubated at 37° C. in 5% (v/v) CO2 for 2 h before use. […]
(§3) After approximately two weeks, the cells were fully ciliated and ready for experiments. […] Beating cilia were recorded before and after exposure over 30 min, with a digital high-speed video camera at a rate of 500 frames/s. The recorded video sequences were played back at reduced frame rates and the ciliary beat frequency (CBF) was determined by the following equation: […]

In data set [4] the target is T3, S. pneumoniae cell lysate containing native pneumolysin (Streptococcus pneumoniae serotype 2, UniProt Q04IN8).
T3 construct: S. pneumoniae cell lysate containing native pneumolysin; endogenous in cells
Description: Ex vivo meningitis assay: effect of bacterial lysate on ciliary function of cultured ependymal cells. Type of data set: cell-based. To be noted: rat ependymal cells; lysate from penicillin-lysed S. pneumoniae; FIG. 2.B.
Excerpt: as §1, §2, §3

The test system of data set [5] is Human lung epithelial cells (A549). The settings on record: concentrations tested, up to approximately 150 times the therapeutic IC50 value.
For data set [6] the following is noted: mice receiving the compound alone; highest concentration of UL1-012 (16 mg/kg i.v. every 6 h).
The subject of data set [7] is Streptococcus pneumoniae strain D39. Description: In vivo efficacy assay using a mouse pneumonia model. To be noted: MF1 mice.

pIC50: −log10 of the molar value.

T1 sequence (Q04IN8 whole entry): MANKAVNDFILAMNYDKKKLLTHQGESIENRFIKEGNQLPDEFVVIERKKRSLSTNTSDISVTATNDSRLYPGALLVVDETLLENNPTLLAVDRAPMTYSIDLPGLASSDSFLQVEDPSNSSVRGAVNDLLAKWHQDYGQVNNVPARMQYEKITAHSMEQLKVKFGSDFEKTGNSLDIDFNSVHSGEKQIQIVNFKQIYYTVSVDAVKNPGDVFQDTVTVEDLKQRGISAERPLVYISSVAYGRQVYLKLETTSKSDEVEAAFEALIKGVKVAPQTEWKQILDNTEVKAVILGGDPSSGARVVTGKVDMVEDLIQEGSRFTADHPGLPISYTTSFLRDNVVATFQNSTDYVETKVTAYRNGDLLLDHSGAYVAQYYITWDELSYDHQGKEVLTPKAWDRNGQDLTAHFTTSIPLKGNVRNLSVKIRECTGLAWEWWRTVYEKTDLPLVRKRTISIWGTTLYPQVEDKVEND
Chain of Anthrolysin O (ALO) (A0A6L7HHW7 35-512 limits assumed): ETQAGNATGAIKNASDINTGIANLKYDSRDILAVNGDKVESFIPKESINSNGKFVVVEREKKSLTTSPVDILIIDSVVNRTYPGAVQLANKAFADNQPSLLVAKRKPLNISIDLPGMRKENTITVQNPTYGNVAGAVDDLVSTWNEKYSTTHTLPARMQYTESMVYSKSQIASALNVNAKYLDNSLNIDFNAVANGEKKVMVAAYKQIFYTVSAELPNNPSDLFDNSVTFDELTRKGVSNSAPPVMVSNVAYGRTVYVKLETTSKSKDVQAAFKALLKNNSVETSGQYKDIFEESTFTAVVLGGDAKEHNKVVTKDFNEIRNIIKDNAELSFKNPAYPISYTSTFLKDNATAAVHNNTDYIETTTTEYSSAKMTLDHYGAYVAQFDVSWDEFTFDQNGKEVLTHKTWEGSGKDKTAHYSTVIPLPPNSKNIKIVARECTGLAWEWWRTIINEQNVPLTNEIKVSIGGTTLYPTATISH
Chain of Perfringolysin O (PFO) (P0C2E9 29-500 limits assumed): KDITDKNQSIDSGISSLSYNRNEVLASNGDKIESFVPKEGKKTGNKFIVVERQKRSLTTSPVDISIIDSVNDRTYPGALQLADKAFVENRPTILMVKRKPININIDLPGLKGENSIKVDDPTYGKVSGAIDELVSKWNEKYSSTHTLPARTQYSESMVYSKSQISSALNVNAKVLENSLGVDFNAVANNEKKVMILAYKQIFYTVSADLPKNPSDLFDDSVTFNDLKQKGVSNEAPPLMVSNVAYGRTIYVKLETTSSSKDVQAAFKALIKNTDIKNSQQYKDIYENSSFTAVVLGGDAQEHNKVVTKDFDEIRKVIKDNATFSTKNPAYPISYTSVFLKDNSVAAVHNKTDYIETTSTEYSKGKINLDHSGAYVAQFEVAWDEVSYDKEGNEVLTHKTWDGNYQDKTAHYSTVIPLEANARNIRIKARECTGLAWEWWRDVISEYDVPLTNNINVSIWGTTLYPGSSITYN
Chain of Listeriolysin O (LLO) (P13128 25-529): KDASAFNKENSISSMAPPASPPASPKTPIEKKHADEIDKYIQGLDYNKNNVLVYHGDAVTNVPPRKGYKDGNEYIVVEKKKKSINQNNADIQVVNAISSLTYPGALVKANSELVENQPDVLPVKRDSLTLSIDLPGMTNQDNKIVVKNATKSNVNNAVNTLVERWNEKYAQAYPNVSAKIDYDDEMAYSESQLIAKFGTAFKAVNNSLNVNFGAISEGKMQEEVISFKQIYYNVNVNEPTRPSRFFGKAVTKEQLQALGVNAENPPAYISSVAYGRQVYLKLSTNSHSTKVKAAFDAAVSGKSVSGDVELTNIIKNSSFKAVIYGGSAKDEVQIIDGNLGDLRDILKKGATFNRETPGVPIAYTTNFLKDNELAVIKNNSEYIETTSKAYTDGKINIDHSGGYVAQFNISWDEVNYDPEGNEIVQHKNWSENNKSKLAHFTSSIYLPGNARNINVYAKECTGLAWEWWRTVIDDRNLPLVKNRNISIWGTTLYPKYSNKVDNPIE
Chain of Suilysin (SLY) (Q55996 28-497 limits assumed): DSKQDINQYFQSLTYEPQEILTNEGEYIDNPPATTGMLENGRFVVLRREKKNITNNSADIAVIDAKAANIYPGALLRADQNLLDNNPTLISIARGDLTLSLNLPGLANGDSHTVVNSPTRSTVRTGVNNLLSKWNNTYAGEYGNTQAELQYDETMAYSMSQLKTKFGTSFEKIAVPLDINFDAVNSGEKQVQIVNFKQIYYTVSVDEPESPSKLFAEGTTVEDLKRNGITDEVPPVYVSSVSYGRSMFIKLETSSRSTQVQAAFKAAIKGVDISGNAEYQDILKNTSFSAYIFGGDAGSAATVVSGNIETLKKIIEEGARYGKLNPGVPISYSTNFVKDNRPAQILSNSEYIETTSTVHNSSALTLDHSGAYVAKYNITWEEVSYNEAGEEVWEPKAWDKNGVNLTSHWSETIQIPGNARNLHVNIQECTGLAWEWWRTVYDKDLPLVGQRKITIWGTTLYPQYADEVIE
T3 sequence (Q04IN8 whole entry): as the sequence (Q04IN8 whole entry) above

Regarding `CCOC(=O)c1c(O)c(O)c(C(=O)N(C)C)n1-c1ccc(OC)cc1` [UL1-012, ethyl 5-(dimethylcarbamoyl)-3,4-dihydroxy-1-(4-methoxyphenyl)-1H-pyrrole-2-carboxylate], the pIC50 is more than 5.00 against pneumolysin [1] (class symbols of Table 1); 6.82 against pneumolysin [1] (specific values); more than 5.00 against Streptolysin O (SLO); more than 5.00 at Perfringolysin O (PFO); more than 5.00 at Listeriolysin O (LLO); more than 5.00 at Anthrolysin O (ALO). Besides, the pIC50 on Suilysin (SLY) was more than 5.00; against pneumolysin [2] it was more than 6.40. For the same molecule, on pneumolysin [3] (UL1-012 1.56 μM-25 μM, FIG. 2.A), the “ciliary beating frequency (CBF) in the presence of pneumolysin” value is “No significant loss of the CBF”. Further, in data set [4], the “ciliary beating frequency (CBF) in the presence of bacterial lysate” value was “significantly prevented the drop of the CBF”. Besides, the “cytotoxicity (LDH release, compound alone)” value in data set [5] is given as “does not exhibit cytotoxicity”. In addition, the visible adverse effects entry in data set [6] was “no visible adverse effects”. For the same molecule, the survival result in [7] (4 mg/kg intravenously every 6 h, up to approximately 40 h after infection, p<0.05, FIG. 5) is listed as “significant improvement in the survival”. The “survival, mice surviving at endpoint” value in data set [7] (16 mg/kg intravenously every 6 h, 72 h post infection, p<0.05, FIG. 6) was 50%. The “disease score (signs of disease)” value in data set [7] (16 mg/kg intravenously every 6 h, p<0.05 at 30 h, 36 h, 60 h and 66 h post-infection, FIG. 7) was “significant attenuation of the signs of the disease”.

Turning to `CCOC(=O)c1c(O)c(O)c(C(=O)OCC)n1-c1ccc(OC)cc1` [UL2-001, diethyl 3,4-dihydroxy-1-(4-methoxyphenyl)-1H-pyrrole-2,5-dicarboxylate], the pIC50 at pneumolysin [1] (class symbols of Table 1) is more than 5.00; against pneumolysin [1] (specific values) it was 6.52; against Streptolysin O (SLO), 4.22 to 4.70; at Perfringolysin O (PFO) it was more than 5.00; on Listeriolysin O (LLO), more than 5.00; against Anthrolysin O (ALO) it was more than 5.00. This molecule showed a pIC50 at Suilysin (SLY) of more than 5.00. At pneumolysin [3] (UL2-001 2.00 μM, FIG. 3), the “ciliary beating frequency (CBF) in the presence of pneumolysin” value was “No significant loss of the CBF”. Moreover, in data set [7] (0.8 mg/kg intranasally every 6 h, 36 h to 60 h post-infection, p<0.05, FIG. 9), the percentage of survival was determined as 60%.
